Experimental data: US20090298834A1, “4-(AMINOMETHYL)CYCLOHEXANAMINE DERIVATIVES AS CALCIUM CHANNEL BLOCKERS” (priority 2008, published 2009)

What was measured:
[1] = molecular target: T1, human α1G T-type channels (Homo sapiens, UniProt O43497); test: T-type calcium channel block, whole cell patch clamp (α1G); type: cell-based; settings: HEK cells stably expressing human α1G; mainly non-inactivated protocol; values above 10 μM represented as 10 μM, values below 0.30 μM represented as 0.30 μM
T1 construct: expressed in transfected cells; host or cells: HEK 293
In short: (§1)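 Whole-cell patch clamp was run on HEK293 cells stably expressing human α1G or α1H. Cells were held at −110 mV and given a 1 s pre-pulse to −100 mV (non-inactivating protocol) before a 50 ms test pulse to −40 mV. Compounds were applied by gravity in external solution with 0.1-0.01% DMSO, and IC50 values are in μM, capped at 10 μM.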

[2] = molecular target: T2, human α1H T-type channels (Homo sapiens, UniProt O95180); test: T-type calcium channel block, whole cell patch clamp (α1H); type: cell-based; settings: HEK cells stably expressing human α1H; mainly non-inactivated protocol; values above 10 μM represented as 10 μM
T2 construct: expressed in transfected cells; host or cells: HEK 293
In short: as §1

[3] = system: spinal nerve ligation model of neuropathic pain; settings: rats; Dogrul et al., Pain (2003); cited from earlier work

T2 sequence (O95180 whole entry): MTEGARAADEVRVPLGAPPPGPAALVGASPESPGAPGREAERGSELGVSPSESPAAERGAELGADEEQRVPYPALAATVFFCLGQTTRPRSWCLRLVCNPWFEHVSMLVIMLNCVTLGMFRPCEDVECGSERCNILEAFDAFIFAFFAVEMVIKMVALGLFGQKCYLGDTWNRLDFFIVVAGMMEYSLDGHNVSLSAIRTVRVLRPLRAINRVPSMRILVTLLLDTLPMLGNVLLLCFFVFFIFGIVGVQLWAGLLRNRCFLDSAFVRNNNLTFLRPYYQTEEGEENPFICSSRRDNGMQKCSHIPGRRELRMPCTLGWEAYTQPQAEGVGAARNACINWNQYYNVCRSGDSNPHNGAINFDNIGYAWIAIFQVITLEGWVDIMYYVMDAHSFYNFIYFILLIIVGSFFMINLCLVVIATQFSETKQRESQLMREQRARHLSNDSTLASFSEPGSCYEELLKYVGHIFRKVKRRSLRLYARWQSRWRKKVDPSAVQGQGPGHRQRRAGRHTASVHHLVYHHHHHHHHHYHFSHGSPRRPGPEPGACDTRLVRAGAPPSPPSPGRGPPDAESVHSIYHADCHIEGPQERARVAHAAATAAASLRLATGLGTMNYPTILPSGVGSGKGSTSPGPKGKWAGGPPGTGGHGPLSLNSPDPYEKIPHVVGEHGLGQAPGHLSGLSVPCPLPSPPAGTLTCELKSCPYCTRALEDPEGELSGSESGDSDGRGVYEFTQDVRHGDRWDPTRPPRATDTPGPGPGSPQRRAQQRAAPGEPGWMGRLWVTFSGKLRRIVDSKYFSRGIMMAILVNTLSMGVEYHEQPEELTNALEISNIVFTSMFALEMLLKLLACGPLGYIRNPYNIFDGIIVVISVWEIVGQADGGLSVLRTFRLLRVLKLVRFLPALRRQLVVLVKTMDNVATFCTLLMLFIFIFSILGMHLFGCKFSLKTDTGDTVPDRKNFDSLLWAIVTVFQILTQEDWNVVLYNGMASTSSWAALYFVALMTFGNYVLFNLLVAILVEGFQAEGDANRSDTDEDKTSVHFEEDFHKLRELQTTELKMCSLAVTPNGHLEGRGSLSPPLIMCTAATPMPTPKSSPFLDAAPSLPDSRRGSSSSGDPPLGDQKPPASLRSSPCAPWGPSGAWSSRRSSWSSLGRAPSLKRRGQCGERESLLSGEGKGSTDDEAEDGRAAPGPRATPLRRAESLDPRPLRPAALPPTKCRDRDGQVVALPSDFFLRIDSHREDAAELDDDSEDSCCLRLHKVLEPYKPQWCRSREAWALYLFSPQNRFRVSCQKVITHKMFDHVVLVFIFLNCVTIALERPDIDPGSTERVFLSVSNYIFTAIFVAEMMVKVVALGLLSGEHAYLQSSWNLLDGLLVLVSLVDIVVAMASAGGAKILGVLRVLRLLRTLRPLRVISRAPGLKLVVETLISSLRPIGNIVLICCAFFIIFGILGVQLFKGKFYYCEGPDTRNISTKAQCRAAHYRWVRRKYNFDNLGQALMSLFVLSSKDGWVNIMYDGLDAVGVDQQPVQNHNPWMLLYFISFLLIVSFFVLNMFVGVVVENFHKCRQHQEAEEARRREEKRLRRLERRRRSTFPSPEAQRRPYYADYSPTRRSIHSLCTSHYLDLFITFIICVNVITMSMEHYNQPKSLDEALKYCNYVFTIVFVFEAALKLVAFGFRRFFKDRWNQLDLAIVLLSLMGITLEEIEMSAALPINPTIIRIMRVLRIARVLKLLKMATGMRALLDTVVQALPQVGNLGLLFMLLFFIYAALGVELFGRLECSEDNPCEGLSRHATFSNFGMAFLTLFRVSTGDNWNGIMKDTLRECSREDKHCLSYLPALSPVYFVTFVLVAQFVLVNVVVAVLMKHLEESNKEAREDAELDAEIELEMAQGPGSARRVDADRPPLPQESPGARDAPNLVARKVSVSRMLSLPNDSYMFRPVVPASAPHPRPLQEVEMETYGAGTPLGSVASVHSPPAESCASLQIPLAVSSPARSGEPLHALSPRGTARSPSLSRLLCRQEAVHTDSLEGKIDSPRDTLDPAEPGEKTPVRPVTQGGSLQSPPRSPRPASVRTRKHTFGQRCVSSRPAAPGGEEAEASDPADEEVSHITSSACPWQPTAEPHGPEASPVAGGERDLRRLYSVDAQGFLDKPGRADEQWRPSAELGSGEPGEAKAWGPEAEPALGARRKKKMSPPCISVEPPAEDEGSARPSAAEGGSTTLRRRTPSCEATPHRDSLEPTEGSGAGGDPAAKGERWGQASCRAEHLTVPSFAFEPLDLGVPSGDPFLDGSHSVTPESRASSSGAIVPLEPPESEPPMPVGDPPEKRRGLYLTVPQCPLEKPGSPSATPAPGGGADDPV
T1 sequence (O43497 whole entry): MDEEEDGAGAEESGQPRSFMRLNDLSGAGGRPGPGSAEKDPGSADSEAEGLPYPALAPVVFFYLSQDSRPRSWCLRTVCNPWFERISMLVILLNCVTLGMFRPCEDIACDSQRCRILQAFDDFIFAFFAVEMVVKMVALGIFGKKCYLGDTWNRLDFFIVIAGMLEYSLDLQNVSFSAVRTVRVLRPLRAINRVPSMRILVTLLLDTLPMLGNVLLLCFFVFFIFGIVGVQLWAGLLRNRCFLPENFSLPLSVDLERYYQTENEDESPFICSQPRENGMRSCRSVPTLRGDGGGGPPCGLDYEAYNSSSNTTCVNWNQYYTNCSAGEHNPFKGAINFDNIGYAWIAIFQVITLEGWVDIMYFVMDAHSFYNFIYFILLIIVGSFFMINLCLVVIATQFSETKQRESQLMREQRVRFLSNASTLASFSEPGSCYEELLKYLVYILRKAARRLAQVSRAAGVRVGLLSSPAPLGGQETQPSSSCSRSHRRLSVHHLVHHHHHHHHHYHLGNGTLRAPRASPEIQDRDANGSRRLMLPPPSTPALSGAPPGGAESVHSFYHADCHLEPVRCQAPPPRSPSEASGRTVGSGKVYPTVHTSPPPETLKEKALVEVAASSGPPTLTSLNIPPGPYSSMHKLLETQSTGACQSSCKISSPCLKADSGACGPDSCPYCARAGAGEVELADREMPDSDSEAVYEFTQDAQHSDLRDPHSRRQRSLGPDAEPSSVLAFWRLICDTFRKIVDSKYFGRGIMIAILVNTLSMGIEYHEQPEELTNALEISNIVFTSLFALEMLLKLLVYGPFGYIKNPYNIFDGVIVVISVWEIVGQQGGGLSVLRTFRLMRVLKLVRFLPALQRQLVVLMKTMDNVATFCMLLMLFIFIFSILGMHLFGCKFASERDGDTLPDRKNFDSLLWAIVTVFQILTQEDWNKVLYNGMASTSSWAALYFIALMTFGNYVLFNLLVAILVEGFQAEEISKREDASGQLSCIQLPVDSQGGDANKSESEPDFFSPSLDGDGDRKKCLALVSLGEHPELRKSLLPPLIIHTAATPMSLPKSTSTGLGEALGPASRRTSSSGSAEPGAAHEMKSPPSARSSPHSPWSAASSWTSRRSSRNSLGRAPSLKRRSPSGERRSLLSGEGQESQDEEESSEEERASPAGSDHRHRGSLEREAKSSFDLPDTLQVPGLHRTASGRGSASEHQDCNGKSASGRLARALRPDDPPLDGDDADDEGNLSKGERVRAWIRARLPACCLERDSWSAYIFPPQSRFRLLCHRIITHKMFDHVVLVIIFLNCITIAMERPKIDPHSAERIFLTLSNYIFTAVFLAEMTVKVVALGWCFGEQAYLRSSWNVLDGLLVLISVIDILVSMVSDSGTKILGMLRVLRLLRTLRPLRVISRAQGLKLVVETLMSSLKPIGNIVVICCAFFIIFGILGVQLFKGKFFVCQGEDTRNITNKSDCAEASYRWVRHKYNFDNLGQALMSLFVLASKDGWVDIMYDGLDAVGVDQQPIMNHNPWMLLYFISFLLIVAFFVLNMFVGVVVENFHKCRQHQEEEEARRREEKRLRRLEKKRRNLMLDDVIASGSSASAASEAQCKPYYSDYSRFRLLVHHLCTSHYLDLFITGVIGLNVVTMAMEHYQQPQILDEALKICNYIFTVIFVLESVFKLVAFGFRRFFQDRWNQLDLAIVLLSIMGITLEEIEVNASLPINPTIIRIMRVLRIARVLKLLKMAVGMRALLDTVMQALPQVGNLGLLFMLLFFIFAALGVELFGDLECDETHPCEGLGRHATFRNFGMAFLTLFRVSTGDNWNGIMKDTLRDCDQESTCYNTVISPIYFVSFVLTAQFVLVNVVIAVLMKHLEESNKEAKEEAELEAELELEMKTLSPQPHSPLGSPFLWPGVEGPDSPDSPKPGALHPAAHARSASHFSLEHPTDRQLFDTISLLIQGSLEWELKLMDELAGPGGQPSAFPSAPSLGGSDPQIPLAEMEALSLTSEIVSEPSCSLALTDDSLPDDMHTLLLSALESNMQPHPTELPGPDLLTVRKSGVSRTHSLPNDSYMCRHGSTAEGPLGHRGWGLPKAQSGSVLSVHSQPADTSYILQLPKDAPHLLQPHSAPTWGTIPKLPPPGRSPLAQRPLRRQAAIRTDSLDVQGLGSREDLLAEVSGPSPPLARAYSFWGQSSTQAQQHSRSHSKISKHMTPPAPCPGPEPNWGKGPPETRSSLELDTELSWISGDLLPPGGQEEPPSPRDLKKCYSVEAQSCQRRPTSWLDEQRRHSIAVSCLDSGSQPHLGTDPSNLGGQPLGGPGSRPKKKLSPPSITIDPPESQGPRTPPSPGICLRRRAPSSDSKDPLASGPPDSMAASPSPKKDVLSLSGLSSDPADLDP

SMILES | IC50 [1] | IC50 [2] | anti-hyperalgesic activity in the spinal nerve ligation model [3]
CC(C)(C)NC(=O)CN[C@H]1CC[C@@H](CNC(=O)c2cc(Cl)cc(Cl)c2)CC1 [Compound 187, N-(((1s,4s)-4-(2-(tert-butylamino)-2-oxoethylamino)cyclohexyl)methyl)-3,5-dichlorobenzamide] | ≤ 300 nM | 60 nM | –
Cc1cc(F)cc(C(=O)NC[C@H]2CC[C@@H](NCC(=O)NC(C)(C)C)CC2)c1 [Compound 188, N-(((1s,4s)-4-(2-(tert-butylamino)-2-oxoethylamino)cyclohexyl)methyl)-3-fluoro-5-methylbenzamide] | 4280 nM | 1230 nM | –
CC(C)(C)NC(=O)CN[C@H]1CC[C@H](CNC(=O)c2cccc(OC(F)(F)F)c2)CC1 [Compound 189, N-(((1r,4r)-4-(2-(tert-butylamino)-2-oxoethylamino)cyclohexyl)methyl)-3-(trifluoromethoxy)benzamide] | 3660 nM | 1660 nM | –
CC1(NC(=O)CN[C@H]2CC[C@H](CNC(=O)c3cccc(OC(F)(F)F)c3)CC2)CCC1 [Compound 190, N-(((1r,4r)-4-(2-(1-methylcyclobutylamino)-2-oxoethylamino)cyclohexyl)methyl)-3-(trifluoromethoxy)benzamide] | 1630 nM | 620 nM | –
CC(C)(C)NC(=O)CN[C@H]1CC[C@H](CNC(=O)c2cc(Cl)cc(Cl)c2)CC1 [Compound 191, N-(((1r,4r)-4-(2-(tert-butylamino)-2-oxoethylamino)cyclohexyl)methyl)-3,5-dichlorobenzamide] | 530 nM | 180 nM | –
CC1(NC(=O)CN[C@H]2CC[C@H](CNC(=O)c3cc(Cl)cc(Cl)c3)CC2)CCC1 [Compound 192, 3,5-dichloro-N-(((1r,4r)-4-(2-(1-methylcyclobutylamino)-2-oxoethylamino)cyclohexyl)methyl)benzamide] | 340 nM | 120 nM | –
CC1(NC(=O)CN[C@H]2CC[C@@H](CNC(=O)c3cc(F)cc(Cl)c3)CC2)CCC1 [Compound 193, 3-chloro-5-fluoro-N-(((1s,4s)-4-(2-(1-methylcyclobutylamino)-2-oxoethylamino)cyclohexyl)methyl)benzamide] | 720 nM | 230 nM | –
CC1(C)COCCN1C(=O)CN[C@H]1CC[C@@H](CNC(=O)c2cc(F)cc(Cl)c2)CC1 [Compound 194, 3-chloro-N-(((1s,4s)-4-(2-(3,3-dimethylmorpholino)-2-oxoethylamino)cyclohexyl)methyl)-5-fluorobenzamide] | 3400 nM | 400 nM | –
CC1(C)CCCN1C(=O)CN[C@H]1CC[C@@H](CNC(=O)c2cc(F)cc(Cl)c2)CC1 [Compound 195, 3-chloro-N-(((1s,4s)-4-(2-(2,2-dimethylpyrrolidin-1-yl)-2-oxoethylamino)cyclohexyl)methyl)-5-fluorobenzamide] | 1100 nM | 170 nM | –
CN(C(=O)CN[C@H]1CC[C@@H](CNC(=O)c2cc(F)cc(Cl)c2)CC1)C(C)(C)C [Compound 196, N-(((1s,4s)-4-(2-(tert-butyl(methyl)amino)-2-oxoethylamino)cyclohexyl)methyl)-3-chloro-5-fluorobenzamide] | 1620 nM | 210 nM | –
COc1cc(F)cc(C(=O)NC[C@H]2CC[C@@H](NCC(=O)NC3(C)CCC3)CC2)c1 [Compound 197, 3-fluoro-5-methoxy-N-(((1s,4s)-4-(2-(1-methylcyclobutylamino)-2-oxoethylamino)cyclohexyl)methyl)benzamide] | 1940 nM | 260 nM | –
COc1cc(F)cc(C(=O)NC[C@H]2CC[C@@H](NCC(=O)N3CCOCC3(C)C)CC2)c1 [Compound 198, N-(((1s,4s)-4-(2-(3,3-dimethylmorpholino)-2-oxoethylamino)cyclohexyl)methyl)-3-fluoro-5-methoxybenzamide] | 9920 nM | 630 nM | –
COc1cc(F)cc(C(=O)NC[C@H]2CC[C@@H](NCC(=O)N3CCCC3(C)C)CC2)c1 [Compound 199, N-(((1s,4s)-4-(2-(2,2-dimethylpyrrolidin-1-yl)-2-oxoethylamino)cyclohexyl)methyl)-3-fluoro-5-methoxybenzamide] | 3800 nM | 350 nM | –
CCC1(C)CC(=O)NC1=O (centres unmarked) [ethosuximide] | – | – | anti-hyperalgesic activity

Further lines, with some results ahead:

IC50 [1] | IC50 [2] | SMILES | anti-hyperalgesic activity in the spinal nerve ligation model [3]
3350 nM | 470 nM | COc1cc(F)cc(C(=O)NC[C@H]2CC[C@@H](NCC(=O)N(C)C(C)(C)C)CC2)c1 [Compound 200, N-(((1s,4s)-4-(2-(tert-butyl(methyl)amino)-2-oxoethylamino)cyclohexyl)methyl)-3-fluoro-5-methoxybenzamide] | –
1800 nM | 570 nM | CC(C)(C)NC(=O)CN[C@H]1CC[C@H](CNC(=O)c2cc(F)cc(Cl)c2)CC1 [Compound 201, N-(((1r,4r)-4-(2-(tert-butylamino)-2-oxoethylamino)cyclohexyl)methyl)-3-chloro-5-fluorobenzamide] | –
970 nM | 310 nM | CC1(NC(=O)CN[C@H]2CC[C@H](CNC(=O)c3cc(F)cc(Cl)c3)CC2)CCC1 [Compound 202, 3-chloro-5-fluoro-N-(((1r,4r)-4-(2-(1-methylcyclobutylamino)-2-oxoethylamino)cyclohexyl)methyl)benzamide] | –
6130 nM | 2160 nM | CC1(C)COCCN1C(=O)CN[C@H]1CC[C@H](CNC(=O)c2cc(F)cc(Cl)c2)CC1 [Compound 203, 3-chloro-N-(((1r,4r)-4-(2-(3,3-dimethylmorpholino)-2-oxoethylamino)cyclohexyl)methyl)-5-fluorobenzamide] | –
1580 nM | 650 nM | CC1(C)CCCN1C(=O)CN[C@H]1CC[C@H](CNC(=O)c2cc(F)cc(Cl)c2)CC1 [Compound 204, 3-chloro-N-(((1r,4r)-4-(2-(2,2-dimethylpyrrolidin-1-yl)-2-oxoethylamino)cyclohexyl)methyl)-5-fluorobenzamide] | –
2020 nM | 1100 nM | CN(C(=O)CN[C@H]1CC[C@H](CNC(=O)c2cc(F)cc(Cl)c2)CC1)C(C)(C)C [Compound 205, N-(((1r,4r)-4-(2-(tert-butyl(methyl)amino)-2-oxoethylamino)cyclohexyl)methyl)-3-chloro-5-fluorobenzamide] | –
4420 nM | 1030 nM | COc1cc(F)cc(C(=O)NC[C@H]2CC[C@H](NCC(=O)NC(C)(C)C)CC2)c1 [Compound 206, N-(((1r,4r)-4-(2-(tert-butylamino)-2-oxoethylamino)cyclohexyl)methyl)-3-fluoro-5-methoxybenzamide] | –
3820 nM | 920 nM | COc1cc(F)cc(C(=O)NC[C@H]2CC[C@H](NCC(=O)NC3(C)CCC3)CC2)c1 [Compound 207, 3-fluoro-5-methoxy-N-(((1r,4r)-4-(2-(1-methylcyclobutylamino)-2-oxoethylamino)cyclohexyl)methyl)benzamide] | –
≥ 10000 nM | 4330 nM | COc1cc(F)cc(C(=O)NC[C@H]2CC[C@H](NCC(=O)N3CCOCC3(C)C)CC2)c1 [Compound 208, N-(((1r,4r)-4-(2-(3,3-dimethylmorpholino)-2-oxoethylamino)cyclohexyl)methyl)-3-fluoro-5-methoxybenzamide] | –
4050 nM | 1600 nM | COc1cc(F)cc(C(=O)NC[C@H]2CC[C@H](NCC(=O)N3CCCC3(C)C)CC2)c1 [Compound 209, N-(((1r,4r)-4-(2-(2,2-dimethylpyrrolidin-1-yl)-2-oxoethylamino)cyclohexyl)methyl)-3-fluoro-5-methoxybenzamide] | –
5610 nM | 2390 nM | COc1cc(F)cc(C(=O)NC[C@H]2CC[C@H](NCC(=O)N(C)C(C)(C)C)CC2)c1 [Compound 210, N-(((1r,4r)-4-(2-(tert-butyl(methyl)amino)-2-oxoethylamino)cyclohexyl)methyl)-3-fluoro-5-methoxybenzamide] | –
1180 nM | 540 nM | CN(C(=O)CN[C@H]1CC[C@H](CNC(=O)c2cc(F)cc(Cl)c2)CC1)C1(C)CCC1 [Compound 211, 3-chloro-5-fluoro-N-(((1r,4r)-4-(2-(methyl(1-methylcyclobutyl)amino)-2-oxoethylamino)cyclohexyl)methyl)benzamide] | –
1580 nM | 420 nM | COCC(C)(C)N(C)C(=O)CN[C@H]1CC[C@@H](CNC(=O)c2cc(F)cc(Cl)c2)CC1 [Compound 212, 3-chloro-5-fluoro-N-(((1s,4s)-4-(2-((1-methoxy-2-methylpropan-2-yl)(methyl)amino)-2-oxoethylamino)cyclohexyl)methyl)benzamide] | –
1030 nM | 330 nM | CN(C(=O)CN[C@H]1CC[C@@H](CNC(=O)c2cc(F)cc(Cl)c2)CC1)C1(C)CCC1 [Compound 213, 3-chloro-5-fluoro-N-(((1s,4s)-4-(2-(methyl(1-methylcyclobutyl)amino)-2-oxoethylamino)cyclohexyl)methyl)benzamide] | –
5820 nM | 710 nM | COCC(C)(C)N(C)C(=O)CN[C@H]1CC[C@@H](CNC(=O)c2cc(F)cc(OC)c2)CC1 [Compound 214, 3-fluoro-5-methoxy-N-(((1s,4s)-4-(2-((1-methoxy-2-methylpropan-2-yl)(methyl)amino)-2-oxoethylamino)cyclohexyl)methyl)benzamide] | –
1990 nM | 410 nM | COc1cc(F)cc(C(=O)NC[C@H]2CC[C@@H](NCC(=O)N(C)C3(C)CCC3)CC2)c1 [Compound 215, 3-fluoro-5-methoxy-N-(((1s,4s)-4-(2-(methyl(1-methylcyclobutyl)amino)-2-oxoethylamino)cyclohexyl)methyl)benzamide] | –
